Experiments:
[1] = tested on: Caulobacter cresentus; experiment: microbe, parasite or virus in culture; assay type: cell-based; conditions: read-out: IC50 cell growth inhibition
[2] = tested on: Helicobacter pylori; assay type: cell-based; conditions: read-out: IC50 cell growth inhibition
[3] = target: dcm Methyltransferase (Hhal) (Haemophilus parahaemolyticus, UniProt P05102); assay type: biochemical, Hemophilus hemolyticus; conditions: at 500 μM
[4] = tested on: Brucella abortus; assay type: cell-based
[5] = target: dam Methylase (E. coli) (Escherichia coli, UniProt P0AEE8); assay type: biochemical; conditions: 100 µM
[6] = tested on: Agrobacterium tumefaciens; assay type: cell-based; conditions: read-out: IC50 cell growth inhibition
[7] = tested on: Caulobacter crescentus (CB15N); assay type: cell-based; conditions: 30° C., growth monitored at 630 nm up to 22 hours; read-out: IC50 (μM) Caulobacter crescentus Cell Growth
[8] = tested on: Bacillus subtilis (ATCC #33234); assay type: cell-based; conditions: 37° C., growth monitored up to 7.5 hours; read-out: IC50 (μM) Bacillus Subtilis Cell Growth
[9] = tested on: Brucella abortus CcrM; assay type: biochemical
[10] = tested on: adenine DNA methyltransferase; assay type: biochemical
[11] = tested on: Bacillus subtilis; experiment: microbe, parasite or virus in culture; assay type: cell-based; conditions: read-out: IC50 cell growth inhibition
[12] = tested on: bacterial cells expressing an adenine DNA methyltransferase; assay type: cell-based, Caulobacter

dcm Methyltransferase (Hhal), sequence (P05102 whole entry): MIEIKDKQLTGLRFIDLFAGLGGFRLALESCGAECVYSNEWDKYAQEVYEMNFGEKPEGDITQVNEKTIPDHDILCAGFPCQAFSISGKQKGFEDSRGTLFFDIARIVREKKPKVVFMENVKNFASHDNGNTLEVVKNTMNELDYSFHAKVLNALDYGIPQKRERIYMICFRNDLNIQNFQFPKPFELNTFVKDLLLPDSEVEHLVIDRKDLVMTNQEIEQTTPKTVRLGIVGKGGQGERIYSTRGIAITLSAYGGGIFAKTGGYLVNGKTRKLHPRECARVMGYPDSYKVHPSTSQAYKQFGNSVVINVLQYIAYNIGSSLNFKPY
dam Methylase (E. coli), sequence (P0AEE8 whole entry): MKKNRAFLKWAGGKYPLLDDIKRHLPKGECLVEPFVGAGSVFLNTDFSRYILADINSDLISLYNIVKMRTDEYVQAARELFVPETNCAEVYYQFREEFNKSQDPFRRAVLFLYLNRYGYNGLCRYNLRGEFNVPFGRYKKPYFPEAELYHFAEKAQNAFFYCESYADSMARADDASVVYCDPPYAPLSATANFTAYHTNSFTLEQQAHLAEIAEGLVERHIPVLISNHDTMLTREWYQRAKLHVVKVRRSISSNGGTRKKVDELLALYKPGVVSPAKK

Molecule | IC50 [7] [µM] | IC50 [8] [µM] | % reaction Brucella abortus CcrM Activity [9] [%] | also measured
c1ccc([B-]2(c3ccccc3)Oc3cccc4ccc[n+]2c34)cc1 [Compound (3), diphenylborinic acid 8-hydroxyquiniline ester] |  |  |  | IC50 [1]: > 100 µM
6-N-(diphenylborinic ester)-ethyl-9-(ethyl-2-acrylate)-methyl-adenine [Compound 3e] |  |  |  | IC50 [2]: 25 µM; inhibition of dcm Methyltransferase [3]: No inhibition at all; effect on cell growth [4]: Cell growth inhibited from start; inhibition of dam Methylase [5]: Complete inhibition
6-N-(diphenylborinic ester)-ethyl-9-(2-(4-morpholinyl)-ethyl)-adenine [Compound 3b] |  |  |  | IC50 [6]: 25 µM; inhibition of dcm Methyltransferase [3]: No inhibition at all; effect on cell growth [4]: Complete cell death after 12 hours; inhibition of dam Methylase [5]: Complete inhibition
COc1ccc(B(Oc2cccc3ccc(C)nc23)c2ccc(OC)cc2)cc1 [(12vii), Di-(4-methoxyphenyl)borinic acid 8-hydroxyquinaldine ester] | 24 | > 100 | 56 | 
Clc1ccc(B(Oc2cccc3cccnc23)c2ccc(Cl)cc2)cc1 [(11iii), Di-(4-chlorophenyl)borinic acid 8-hydroxyquinoline ester] | 16 |  | 61 | 
Clc1ccc(OB(c2ccc3c(c2)OCO3)c2ccc3c(c2)OCO3)c2ncccc12 [(13vi), Di-(3,4-methylenedioxyphenyl)borinic acid 5-chloro-8-hydroxyquinoline ester] | 7 | > 100 |  | 
Clc1cccc(B(Oc2cccc3cccnc23)c2cccc(Cl)c2)c1 [(11iv), Di-(3-chlorophenyl)borinic acid 8-hydroxyguinoline ester] | 10 | < 10 |  | 
NCCNc1ncnc2[nH]cnc12 [compound (8)] |  |  |  | inhibitory activity [10]: relatively low (mM range)
c1ccc(B(Oc2cccc3cccnc23)c2ccccc2)cc1 [(11i), diphenylborinic acid 8-hydroxyquiniline ester] | > 100 |  |  | 
Clc1ccc([B-]2(c3ccc(Cl)cc3)Oc3cccc4ccc[n+]2c34)cc1 [Compound (2), di-(p-chlorophenyl)borinic acid 8-hydroxyquiniline ester] |  |  |  | IC50 [1]: 1.6 µM; IC50 [11]: 7 µM
O=[N+]([O-])c1ccc(OB(c2ccc3c(c2)OCO3)c2ccc3c(c2)OCO3)c2ncccc12 [(14vi), Di-(3,4-methylenedioxyphenyl)borinic acid 8-hydroxy-5-nitroquinoline ester] | 7 | > 100 | 21 | 
c1cnc2c(OB(c3ccc4c(c3)OCO4)c3ccc4c(c3)OCO4)cccc2c1 [(11vi), Di-(3,4-methylenedioxyphenyl)borinic acid 8-hydroxyquinoline ester] | 32 | 28 | 42 | 
Cc1ccc2cccc(OB(c3ccc(Cl)cc3)c3ccc(Cl)cc3)c2n1 [(12iii), Di-(p-chlorophenyl)borinic acid 8-hydroxyguinaldine ester] | 5 | 24 | 40 | 
Fc1ccc(B(Oc2ccc(Cl)c3cccnc23)c2ccc(F)cc2)cc1 [(13ii), Di-(p-fluorophenyl)borinic acid 5-chloro-8-hydroxyquinaline ester] | 7 | 27 | 55 | 
Fc1cc(Cl)ccc1B(Oc1cccc2cccnc12)c1ccc(Cl)cc1F [(11v), Di-(4-chloro-2-fluorophenyl)borinic acid 8-hydroxyquinoline ester] | 26 | < 10 |  | 
Clc1ccc(B(Oc2ccc(Cl)c3cccnc23)c2ccc(Cl)cc2)cc1 [(13iii), Di-(p-chlorophenyl)borinic acid 5-chloro-8-hydroxyquinaline ester] | 6 | < 10 | 81 | 
c1ccc(B(OCCNc2ncnc3[nH]cnc23)c2ccccc2)cc1 |  |  |  | concentration found to inhibit cell growth [12]: < 50 µM

Molecule | IC50 [7] [µM] | IC50 [8] [µM] | % reaction Brucella abortus CcrM Activity [9] [%] | also measured
COc1ccc(B(Oc2ccc(Cl)c3cccnc23)c2ccc(OC)cc2)cc1 [(13vii), Di-(4-methoxyphenyl)borinic acid 5-chloro-8-hydroxyquinoline ester] | 7 | 36 |  | 
Fc1ccc([B-]2(c3ccc(F)cc3)[NH2+]CCO2)cc1 [Compound (4), di-(p-fluorophenyl)borinic acid ethanolamine ester] |  |  |  | IC50 [1]: 8.5 µM; IC50 [11]: 3.4 µM
Diphenylborinic acid (S)-(+)-pyrrolidine-2-methanol [(18i)] | > 100 | > 100 | 81 | 
Clc1ccc([B-]2(c3ccc(Cl)cc3)[NH2+]CCO2)cc1 [Compound (5), di-(p-chlorophenyl)borinic acid ethanolamine ester] |  |  |  | IC50 [1]: 1.7 µM; IC50 [11]: 3.2 µM
NCCOB(c1ccc(F)cc1)c1ccc(F)cc1 [(19ii), Di-(4-fluorophenyl)borinic acid ethanolamine ester] | 85 |  | 8 | 
COc1ccc(B(Oc2cccc3cccnc23)c2ccc(OC)cc2)cc1 [(11vii), Di-(4-methoxyphenyl)borinic acid 8-hydroxyquinoline ester] | 24 | 20 |  | 
6-N-(diphenylborinic ester)-ethyl-adenine [Compound 3a] |  |  |  | IC50 [6]: > 100 µM; inhibition of dcm Methyltransferase [3]: No inhibition at all; effect on cell growth [4]: Almost complete cell death after 12 hours; inhibition of dam Methylase [5]: Complete inhibition
Fc1ccc(B(Oc2cccc3cccnc23)c2ccc(F)cc2)cc1 [(11ii), Di-(4-fluorophenyl)borinic acid 8-hydroxyguinoline ester] | 23 |  | 61 | 
Cc1ccc2cccc(OB(c3ccc(F)cc3)c3ccc(F)cc3)c2n1 [(12ii), Di-(p-fluorophenyl)borinic acid 8-hydroxyquinaldine ester] | 56 | > 100 | 17 | 
c1csc(B(Oc2cccc3cccnc23)c2cccs2)c1 [(11viii), Di-(2-thienyl)borinic acid 8-hydroxyguinoline ester] | > 100 | 28 | 74 | 
Fc1ccc([B-]2(c3ccc(F)cc3)Oc3cccc4ccc[n+]2c34)cc1 [Compound (1), di-(p-fluorophenyl)borinic acid 8-hydroxyquiniline ester] |  |  |  | IC50 [1]: 23 µM; IC50 [11]: 1.4 µM
NCCOB(c1ccc(Cl)cc1)c1ccc(Cl)cc1 [(19iii), Di-(4-chlorophenyl)borinic acid ethanolamine ester] | 17 |  |  | 
6-N-(diphenylborinic ester)-ethyl-9-(3-(N-phthaloyl)-aminopropyl)-adenine [Compound 3c] |  |  |  | IC50 [6]: 25 µM; inhibition of dcm Methyltransferase [3]: No inhibition at all; effect on cell growth [4]: Cell growth inhibited from start; inhibition of dam Methylase [5]: Complete inhibition
c1ccc(B(OCc2ccccn2)c2ccccc2)cc1 [(16i), Diphenylborinic acid pyridine-2-methanol] | > 100 | > 100 | 93 | 
Diphenylborinic acid 2-amino-1-phenylpropanol [(17i)] | > 100 | > 100 | 114 | 
6-N-(diphenylborinic ester)-ethyl-9-(2-(2-(2-hydroxyethoxy)ethoxy)ethyl)-adenine [Compound 3d] |  |  |  | inhibition of dcm Methyltransferase [3]: No inhibition at all; effect on cell growth [4]: Cell growth inhibited from start; inhibition of dam Methylase [5]: Complete inhibition

— patent US20050227933A1 (priority 2001, published 2005)
